In ChEMBL document CHEMBL3297669, “Suvanine sesterterpenes and deacyl irciniasulfonic acids from a tropical Coscinoderma sp. sponge” (J Nat Prod, 2014):
pIC50: −log10 of the molar value. Converted amounts (≈) assume the structure as drawn.

Key:
Pyricularia grisea = test: Inhibition of Magnaporthe grisea Guy 11 isocitrate lyase
K562 = test: Cytotoxicity against human K562 cells; assay type: functional; conditions: read-out: LC50 (the source's name)
A549 = test: Cytotoxicity against human A549 cells; assay type: functional; conditions: read-out: LC50 (the source's name)
Staphylococcus aureus = test: Antimicrobial activity against Staphylococcus aureus ATCC 6538p after 24 hrs by two-fold broth dilution method; assay type: functional
Bacillus spizizenii = test: Antimicrobial activity against Bacillus subtilis ATCC 6633 after 24 hrs by two-fold broth dilution method; assay type: functional; conditions: ATCC 6633, 24 h
Kocuria rhizophila = test: Antimicrobial activity against Kocuria rhizophila NBRC 12708 after 24 hrs by two-fold broth dilution method; assay type: functional; conditions: NBRC 12708, 24 h
Salmonella enterica = test: Antimicrobial activity against Salmonella enterica ATCC 14028 after 24 hrs by two-fold broth dilution method; assay type: functional; conditions: ATCC 14028, 24 h
Proteus hauseri = test: Antimicrobial activity against Proteus hauseri NBRC 3851 after 24 hrs by two-fold broth dilution method; assay type: functional; conditions: NBRC 3851, 24 h
Escherichia coli = test: Antimicrobial activity against Escherichia coli ATCC 35270 after 24 hrs by two-fold broth dilution method; assay type: functional; conditions: ATCC 35270, 24 h
[1] = Inhibition of sortase A (unknown origin)

## CC1(C)CCC[C@]2(C)[C@H]3CC/C(=C\OS(=O)(=O)[O-])[C@H](CCc4ccoc4)[C@@]3(C)CC[C@@H]12.C[N+](C)=C(N)N
Pyricularia grisea
  MIC: 51 µg/mL

## CC1(C)CCC[C@]2(C)[C@H]3CC/C(=C\OS(=O)(=O)[O-])[C@H](CCC4=CCN(CCS(=O)(=O)O)C4=O)[C@@]3(C)CC[C@@H]12.[Na+]
K562
  CC50: 4.6 µg/mL
A549
  CC50: 2 µg/mL
Staphylococcus aureus
  MIC: > 100 µg/mL
Bacillus spizizenii
  MIC: > 100 µg/mL
Kocuria rhizophila
  MIC: > 100 µg/mL
Salmonella enterica
  MIC: > 100 µg/mL
Proteus hauseri
  MIC: > 100 µg/mL
Escherichia coli
  MIC: > 100 µg/mL
Pyricularia grisea
  MIC: 90 µg/mL
[1]
  pIC50: < 4.00

## C[C@H](C(=O)O)N1CC=C(CC[C@H]2/C(=C/OS(=O)(=O)[O-])CC[C@H]3[C@]2(C)CC[C@H]2C(C)(C)CCC[C@]32C)C1=O.[Na+]
K562
  CC50: 1.9 µg/mL
A549
  CC50: 1.1 µg/mL
Staphylococcus aureus
  MIC: > 100 µg/mL
Bacillus spizizenii
  MIC: > 100 µg/mL
Kocuria rhizophila
  MIC: > 100 µg/mL
Salmonella enterica
  MIC: 50 µg/mL
Proteus hauseri
  MIC: > 100 µg/mL
Escherichia coli
  MIC: > 100 µg/mL
Pyricularia grisea
  MIC: 48 µg/mL
[1]
  pIC50: < 4.00

## CC(=O)CCCCC/C(C)=C\C(=O)NCCS(=O)(=O)O
K562
  CC50: > 100 µg/mL
A549
  CC50: > 100 µg/mL
Staphylococcus aureus
  MIC: > 100 µg/mL
Bacillus spizizenii
  MIC: > 100 µg/mL
Kocuria rhizophila
  MIC: > 100 µg/mL
Salmonella enterica
  MIC: > 100 µg/mL
Proteus hauseri
  MIC: > 100 µg/mL
Escherichia coli
  MIC: > 100 µg/mL
Pyricularia grisea
  MIC: > 100 µg/mL
[1]
  pIC50: < 4.00

## CC(C)[C@@H](C(=O)O)N1CC(CC[C@H]2/C(=C/OS(=O)(=O)[O-])CC[C@H]3[C@]2(C)CC[C@H]2C(C)(C)CCC[C@]32C)=CC1=O.[Na+]
K562
  CC50: 3.9 µg/mL
A549
  CC50: 1.9 µg/mL
Staphylococcus aureus
  MIC: > 100 µg/mL
Bacillus spizizenii
  MIC: > 100 µg/mL
Kocuria rhizophila
  MIC: > 100 µg/mL
Salmonella enterica
  MIC: 100 µg/mL
Proteus hauseri
  MIC: > 100 µg/mL
Escherichia coli
  MIC: > 100 µg/mL
Pyricularia grisea
  MIC: 64 µg/mL
[1]
  pIC50: < 4.00

## CC1(C)S[C@@H]2[C@H](NC(=O)[C@H](N)c3ccccc3)C(=O)N2[C@H]1C(=O)O [AMPICILLIN]
Staphylococcus aureus
  MIC: 0.39 µg/mL (≈ 1.12 µM)
Bacillus spizizenii
  MIC: 0.39 µg/mL (≈ 1.12 µM)
Kocuria rhizophila
  MIC: 0.39 µg/mL (≈ 1.12 µM)
Salmonella enterica
  MIC: 0.39 µg/mL (≈ 1.12 µM)
Proteus hauseri
  MIC: 0.78 µg/mL (≈ 2.23 µM)
Escherichia coli
  MIC: 3.12 µg/mL (≈ 8.93 µM)
[1]
  pIC50: < 4.00

## CC1(C)CCC[C@]2(C)[C@H]3CC/C(=C\OS(=O)(=O)[O-])[C@H](CCC4=CC(=O)N(CCS(=O)(=O)O)C4)[C@@]3(C)CC[C@@H]12.[Na+]
K562
  CC50: 3.6 µg/mL
A549
  CC50: 3.5 µg/mL
Staphylococcus aureus
  MIC: > 100 µg/mL
Bacillus spizizenii
  MIC: > 100 µg/mL
Kocuria rhizophila
  MIC: > 100 µg/mL
Salmonella enterica
  MIC: > 100 µg/mL
Proteus hauseri
  MIC: > 100 µg/mL
Escherichia coli
  MIC: > 100 µg/mL
Pyricularia grisea
  MIC: 50 µg/mL
[1]
  pIC50: < 4.00

## CC1(C)CCC[C@]2(C)[C@H]3CC/C(=C\OS(=O)(=O)[O-])[C@H](CCc4ccoc4)[C@@]3(C)CC[C@@H]12.C[N+](C)=C(N)N [SUVANINE]
K562
  CC50: 0.9 µg/mL
A549
  CC50: 1.7 µg/mL
Staphylococcus aureus
  MIC: > 100 µg/mL
Bacillus spizizenii
  MIC: 12.5 µg/mL
Kocuria rhizophila
  MIC: > 100 µg/mL
Salmonella enterica
  MIC: 25 µg/mL
Proteus hauseri
  MIC: 100 µg/mL
Escherichia coli
  MIC: > 100 µg/mL
[1]
  pIC50: < 4.00

## CC1(C)CCC[C@]2(C)[C@H]3CC/C(=C\OS(=O)(=O)[O-])[C@H](CCc4ccoc4)[C@@]3(C)CC[C@@H]12.CN(C)c1n(C)c(=O)c2c([n+]1C)N(C)CN2C [listing 1 of 2 here]
K562
  CC50: 2.2 µg/mL
A549
  CC50: 1.9 µg/mL
Staphylococcus aureus
  MIC: 6.25 µg/mL
Bacillus spizizenii
  MIC: 0.78 µg/mL
Kocuria rhizophila
  MIC: 6.25 µg/mL
Salmonella enterica
  MIC: 0.78 µg/mL
Proteus hauseri
  MIC: 6.25 µg/mL
Escherichia coli
  MIC: > 100 µg/mL
[1]
  pIC50: < 4.00

## CC1(C)CCC[C@]2(C)[C@H]3CC/C(=C\OS(=O)(=O)[O-])[C@H](CCC4=CCN(CC(=O)O)C4=O)[C@@]3(C)CC[C@@H]12.[Na+]
K562
  CC50: 1.3 µg/mL
A549
  CC50: 1.4 µg/mL
Staphylococcus aureus
  MIC: > 100 µg/mL
Bacillus spizizenii
  MIC: > 100 µg/mL
Kocuria rhizophila
  MIC: > 100 µg/mL
Salmonella enterica
  MIC: > 100 µg/mL
Proteus hauseri
  MIC: > 100 µg/mL
Escherichia coli
  MIC: > 100 µg/mL
Pyricularia grisea
  MIC: 62 µg/mL
[1]
  pIC50: < 4.00

## C/C(=C/C(=O)NCCS(=O)(=O)[O-])CCCCC[C@H](C)O.[Na+]
K562
  CC50: > 100 µg/mL
A549
  CC50: > 100 µg/mL
Staphylococcus aureus
  MIC: > 100 µg/mL
Salmonella enterica
  MIC: > 100 µg/mL
Pyricularia grisea
  MIC: > 100 µg/mL
[1]
  pIC50: < 4.00

## O=C(O)CC[N+](=O)[O-]
Pyricularia grisea
  MIC: 2.5 µg/mL (≈ 21 µM)
[1]
  pIC50: < 4.00

## CC1(C)CCC[C@]2(C)[C@H]3CC/C(=C\OS(=O)(=O)[O-])[C@H](CCc4ccoc4)[C@@]3(C)CC[C@@H]12.CN(C)c1n(C)c(=O)c2c([n+]1C)N(C)CN2C [listing 2 of 2 here]
Pyricularia grisea
  MIC: 28 µg/mL

## COc1cccc2c1C(=O)c1c(O)c3c(c(O)c1C2=O)C[C@@](O)(C(=O)CO)C[C@@H]3O[C@H]1C[C@H](N)[C@H](O)[C@H](C)O1 [DOXORUBICIN]
K562
  CC50: 0.7 µg/mL (≈ 1.29 µM)
A549
  CC50: 0.8 µg/mL (≈ 1.47 µM)
[1]
  pIC50: < 4.00

## C[S+]([O-])CCCN1CC=C(CC[C@H]2/C(=C/OS(=O)(=O)[O-])CC[C@H]3[C@]2(C)CC[C@H]2C(C)(C)CCC[C@]32C)C1=O.[Na+] (stereo not given in full)
K562
  CC50: 3.9 µg/mL
A549
  CC50: 5.5 µg/mL
Staphylococcus aureus
  MIC: > 100 µg/mL
Salmonella enterica
  MIC: 50 µg/mL
Pyricularia grisea
  MIC: 24 µg/mL
[1]
  pIC50: < 4.00

## C[C@@H]1O[C@@H](O[C@H]2C[C@@H](O)[C@]3(CO)[C@H]4[C@H](O)C[C@]5(C)[C@@H](C6=CC(=O)OC6)CC[C@]5(O)[C@@H]4CC[C@]3(O)C2)[C@H](O)[C@H](O)[C@H]1O [OUABAIN]
[1]
  pIC50: < 4.00
